From ChEMBL document CHEMBL1201862, “PubChem BioAssay data set” (2004)
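Results reflect a 48-hour exposure of cells in 96-well plates to compound at five concentrations. The concentration for 50% growth inhibition is given as GI50.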 The source made the active and inactive calls. Rule as the data show it: active = GI50 up to about 1.1 µM and inactive = higher.

How the values were obtained:
Assay in all cases: growth of human tumour cells (NCI), 48 h
786-0 = tested on: 786-0
COLO 205 = tested on: COLO 205
HL-60 = tested on: HL-60
HOP-62 = tested on: HOP-62
HOP-92 = tested on: HOP-92
IGROV-1 = tested on: IGROV-1
MDA-MB-435 = tested on: MDA-MB-435
Malme-3M = tested on: Malme-3M
NCI-H522 = tested on: NCI-H522
NCI/ADR-RES = tested on: NCI/ADR-RES
OVCAR-4 = tested on: OVCAR-4
RPMI-8226 = tested on: RPMI-8226
RXF 393 = tested on: RXF 393
SF-295 = tested on: SF-295
SK-MEL-28 = tested on: SK-MEL-28
SR = tested on: SR
T47D = tested on: T47D
TK-10 = tested on: TK-10
U-251 = tested on: U-251
UO-31 = tested on: UO-31

SMILES | GI50 (786-0) | GI50 (COLO 205) | GI50 (HL-60) | GI50 (HOP-62) | GI50 (HOP-92) | GI50 (IGROV-1) | GI50 (MDA-MB-435) | GI50 (Malme-3M) | GI50 (NCI-H522) | GI50 (NCI/ADR-RES) | GI50 (OVCAR-4) | GI50 (RPMI-8226) | GI50 (RXF 393) | GI50 (SF-295) | GI50 (SK-MEL-28) | GI50 (SR) | GI50 (T47D) | GI50 (TK-10) | GI50 (U-251) | GI50 (UO-31)
O=C1NC(=S)NC(=O)C1=Cc1cccc2cc3ccccc3cc12 | 1.61 µM (inactive) | 1.88 µM (inactive) | 1.71 µM (inactive) | 1.84 µM (inactive) | 1.66 µM (inactive) | 1.67 µM (inactive) | 2.12 µM (inactive) | 2.11 µM (inactive) | 1.91 µM (inactive) | 2.22 µM (inactive) | 2.28 µM (inactive) | 1.24 µM (inactive) | 1.66 µM (inactive) | 2.46 µM (inactive) | 2.57 µM (inactive) | 1.44 µM (inactive) | 0.9 µM (active) | 1.89 µM (inactive) | 1.69 µM (inactive) | 1.95 µM (inactive)
CC12C=CC(=O)C=C1CCC1C3CCC(O)(C(=O)CO)C3(C)CC(O)C12F (stereo not given) | > 100 µM (inactive) | > 100 µM (inactive) | > 100 µM (inactive) | > 100 µM (inactive) | > 100 µM (inactive) | > 100 µM (inactive) | > 100 µM (inactive) | > 100 µM (inactive) | > 100 µM (inactive) | > 100 µM (inactive) | > 100 µM (inactive) | 17.1 µM (inactive) | > 100 µM (inactive) | > 100 µM (inactive) | > 100 µM (inactive) | > 100 µM (inactive) | > 100 µM (inactive) | > 100 µM (inactive) | > 100 µM (inactive) | > 100 µM (inactive)
COCc1nc2c(OC)c(-c3nc4ccc(N5CCN(C)CC5)cc4[nH]3)cc(OC)c2[nH]1 | 40.1 µM (inactive) | 25.6 µM (inactive) | 33.6 µM (inactive) | 32.4 µM (inactive) | > 100 µM (inactive) | 97.9 µM (inactive) | 33 µM (inactive) | 16.9 µM (inactive) | 31.1 µM (inactive) | > 100 µM (inactive) | 59.2 µM (inactive) | 32.1 µM (inactive) | 14.3 µM (inactive) | 21.6 µM (inactive) | > 100 µM (inactive) | 19.7 µM (inactive) | 65.2 µM (inactive) | 84.9 µM (inactive) | 42 µM (inactive) | 31.2 µM (inactive)
COc1cc(CC2C(=O)OCC2Cc2ccc(OC)c(OC)c2)ccc1O (stereo not given) | > 100 µM (inactive) | > 100 µM (inactive) | > 100 µM (inactive) | > 100 µM (inactive) | 29.5 µM (inactive) | > 75.3 µM (inactive) | > 100 µM (inactive) | > 100 µM (inactive) | > 100 µM (inactive) | 43.6 µM (inactive) | > 100 µM (inactive) | > 100 µM (inactive) | > 100 µM (inactive) | 8.85 µM (inactive) | > 100 µM (inactive) | > 100 µM (inactive) | 28.6 µM (inactive) | > 100 µM (inactive) | > 100 µM (inactive) | > 100 µM (inactive)
CCC1CC(C)C(O)/C=C/C=C/CC(C)OC(=O)CC(O)C(OC)C1OC1OC(C)CC(O)(C(C)=O)C1O (stereo not given) | > 100 µM (inactive) | 63.1 µM (inactive) | 21.8 µM (inactive) | 39.7 µM (inactive) | > 100 µM (inactive) | > 100 µM (inactive) | > 100 µM (inactive) | 38.8 µM (inactive) | 13.3 µM (inactive) | 49 µM (inactive) | 8.47 µM (inactive) | 48.8 µM (inactive) | 44.7 µM (inactive) | > 100 µM (inactive) | > 100 µM (inactive) | 14.1 µM (inactive) | 51.4 µM (inactive) | 60.8 µM (inactive) | 60.4 µM (inactive) | 47.3 µM (inactive)
CSc1c(CC(=O)Nc2ccc(Cl)cc2)n(Cc2ccccc2)c2ccccc12 | 11.3 µM (inactive) | 44.6 µM (inactive) | > 100 µM (inactive) | 21.2 µM (inactive) | 13.7 µM (inactive) | 26.5 µM (inactive) | 49.3 µM (inactive) | 57.7 µM (inactive) | 18.1 µM (inactive) | 19.4 µM (inactive) | 11.7 µM (inactive) | 67.5 µM (inactive) | 12.8 µM (inactive) | 62.7 µM (inactive) | > 100 µM (inactive) | 23 µM (inactive) | 12.1 µM (inactive) | 16 µM (inactive) | 11.6 µM (inactive) | 34.3 µM (inactive)
CC(=O)NCCC1CN(C(=O)/C=C/I)c2ccccc21 (stereo not given) | 1.32 µM (inactive) | 3.75 µM (inactive) | 3.17 µM (inactive) | 14.2 µM (inactive) | 1.9 µM (inactive) | 6.55 µM (inactive) | 5.93 µM (inactive) | 13 µM (inactive) | 1.39 µM (inactive) | 10.1 µM (inactive) | 1.96 µM (inactive) | 0.292 µM (active) | 5.21 µM (inactive) | 15.5 µM (inactive) | 6.04 µM (inactive) | 2.9 µM (inactive) | 2.04 µM (inactive) | 1.42 µM (inactive) | 10.8 µM (inactive) | 2.89 µM (inactive)
CO[C@H]1[C@@H](O)[C@@H](C)O[C@@H](O[C@H]2CC[C@@]3(C)[C@H](CC[C@@H]4[C@@H]3CC[C@]3(C)[C@@H](C5=CC(=O)OC5)CC[C@]43O)C2)[C@@H]1O [ODOROSIDE H] | 0.00453 µM (active) | 0.0366 µM (active) | 0.00378 µM (active) | 0.00361 µM (active) | 0.0127 µM (active) | 0.00498 µM (active) | 0.00908 µM (active) | 0.00441 µM (active) | < 0.0025 µM (active) | 0.00548 µM (active) | 0.00583 µM (active) | 0.0111 µM (active) | 0.00394 µM (active) | 0.00516 µM (active) | 0.0394 µM (active) | 0.00304 µM (active) | 0.0333 µM (active) | 0.00336 µM (active) | 0.00836 µM (active) | 0.00454 µM (active)
